Results reported in ChEMBL document CHEMBL4483862, “Open-source discovery of chemical leads for next-generation chemoprotective antimalarials” (2018).

Tested on: Plasmodium berghei
Experiment: Luciferase/luciferin-expressing antifolate-resistant parasites were used to infect a culture of HepG2 cells that were pre-incubated with compounds. Infected hepatocytes emit light due to the luciferase reaction. Assay results are presented as the percent inhibition of light emission compared to control. […]
Assay type: functional
Conditions: sporozoite; for IC90: read-out: LUCIFERASE INFECTION ASSAY - IC90

Row | SMILES | IC90 [µM] | further results
1 | COc1ccc(CCN2C(=O)C=CC2=O)cc1OC | 5.29 | IC50 (FFLUC_HILL_SLOPE 0.51, FFLUC_R_SQUARED 0.0256, HEPG2TOX_HILL_SLOPE 14.8, HEPG2TOX_R_SQUARED 0.93, PBLUC_HILL_SLOPE 12.3, PBLUC_R_SQUARED 0.48, read-out: LUCIFERASE INFECTION ASSAY - IC50): 4.42 µM
2 | Cc1cc(C)n(-c2ccc(S(N)(=O)=O)cc2)n1 | > 13.1 | IC50 (FFLUC_HILL_SLOPE 0.55, FFLUC_R_SQUARED 0.0304, read-out: LUCIFERASE INFECTION ASSAY - IC50): > 13.1 µM
3 | c1csc(-c2cnc3sc(NCCc4ccncc4)nn23)c1 | > 10.1 | IC50 (FFLUC_HILL_SLOPE 0.665, FFLUC_R_SQUARED 0.0104, HEPG2TOX_HILL_SLOPE 4.1, HEPG2TOX_R_SQUARED 0.712, read-out: LUCIFERASE INFECTION ASSAY - IC50): > 10.1 µM
4 | O=C(Nc1ccc(OC(F)(F)F)cc1)Nc1cncc(C(F)(F)F)c1 | 6.72 | IC50 (FFLUC_HILL_SLOPE 0.707, FFLUC_R_SQUARED 0.204, PBLUC_HILL_SLOPE 4.06, PBLUC_R_SQUARED 0.292, read-out: LUCIFERASE INFECTION ASSAY - IC50): 3.91 µM
5 | Cc1ccnc(NC(=O)c2ccc(C3SCCCS3)cc2)c1 | 1.57 | IC50 (FFLUC_HILL_SLOPE 0.47, FFLUC_R_SQUARED 0.912, PBLUC_HILL_SLOPE 0.485, PBLUC_R_SQUARED 0.898, read-out: LUCIFERASE INFECTION ASSAY - IC50): 0.0169 µM
6 | C(=N\Nc1ncnc2sc(-c3ccccc3)cc12)/c1sc(N2CCCCC2)nc1-c1cccs1 | 1.21 | IC50 (FFLUC_HILL_SLOPE 0.658, FFLUC_R_SQUARED 0.126, HEPG2TOX_HILL_SLOPE 2.14, HEPG2TOX_R_SQUARED 0.958, PBLUC_HILL_SLOPE 24.1, PBLUC_R_SQUARED 0.279, read-out: LUCIFERASE INFECTION ASSAY - IC50): 1.11 µM
7 | CC(NS(=O)(=O)c1ccc(-n2ncc(Cl)c(Cl)c2=O)cc1)c1ccc2ccccc2c1 (stereo not given) | 3.82 | IC50 (FFLUC_HILL_SLOPE 0.605, FFLUC_R_SQUARED 0.525, HEPG2TOX_HILL_SLOPE 11.4, HEPG2TOX_R_SQUARED 0.983, PBLUC_HILL_SLOPE 12.9, PBLUC_R_SQUARED 0.58, read-out: LUCIFERASE INFECTION ASSAY - IC50): 3.22 µM
8 | CCOC(=O)C1=C(C)N(c2ccc(Cl)cc2)C(=O)NC1c1c(F)cccc1Cl (stereo not given) | > 10 | IC50 (FFLUC_HILL_SLOPE 0.633, FFLUC_R_SQUARED 0.184, HEPG2TOX_HILL_SLOPE 1.11, HEPG2TOX_R_SQUARED 0.991, PBLUC_HILL_SLOPE 1.36, PBLUC_R_SQUARED 0.55, read-out: LUCIFERASE INFECTION ASSAY - IC50): 3.38 µM
9 | CC12C/C(=C\c3ccccc3)C(O)CC1CCC1C2CCC2(C)C1CC[C@]2(C)O (stereo not given in full) | > 8.36 | IC50 (FFLUC_HILL_SLOPE 0.541, FFLUC_R_SQUARED 0.353, PBLUC_HILL_SLOPE 12.3, PBLUC_R_SQUARED 0.0329, read-out: LUCIFERASE INFECTION ASSAY - IC50): > 8.36 µM
10 | NC(=O)NC(CC(=O)NCc1cccs1)c1cccc(Oc2ccccc2)c1 (stereo not given) | > 10 | IC50 (FFLUC_HILL_SLOPE 0.589, FFLUC_R_SQUARED 0.0522, PBLUC_HILL_SLOPE 12.1, PBLUC_R_SQUARED 0.469, read-out: LUCIFERASE INFECTION ASSAY - IC50): 9.25 µM
11 | Clc1c(-c2c(-c3ccccc3)[nH]c3ccccc23)nc2ccccc2c1-c1ccccc1 | 8.61 | IC50 (FFLUC_HILL_SLOPE 0.689, FFLUC_R_SQUARED 0.515, HEPG2TOX_HILL_SLOPE 2.63, HEPG2TOX_R_SQUARED 0.531, PBLUC_HILL_SLOPE 2.99, PBLUC_R_SQUARED 0.588, read-out: LUCIFERASE INFECTION ASSAY - IC50): 4.13 µM
12 | COc1cc(-c2cnc3cnc(-c4ccsc4)cn23)cc(OC)c1OC | 1.45 | IC50 (FFLUC_HILL_SLOPE 0.573, FFLUC_R_SQUARED 0.0155, HEPG2TOX_HILL_SLOPE 1.65, HEPG2TOX_R_SQUARED 0.878, PBLUC_HILL_SLOPE 3.42, PBLUC_R_SQUARED 0.766, read-out: LUCIFERASE INFECTION ASSAY - IC50): 0.761 µM
13 | CCc1cccc(CC)c1N1C(=O)/C(=C\c2ccc(C(C)(C)C)cc2)N(C)C1=S | > 10 | IC50 (FFLUC_HILL_SLOPE 0.556, FFLUC_R_SQUARED 0.412, PBLUC_HILL_SLOPE 2.98, PBLUC_R_SQUARED 0.687, read-out: LUCIFERASE INFECTION ASSAY - IC50): 5.42 µM
14 | O=C(Nc1nc(-c2ccccn2)cs1)C1CCCN(C(=O)c2ccc(Cl)cc2)C1 (stereo not given) | > 10 | IC50 (FFLUC_HILL_SLOPE 0.539, FFLUC_R_SQUARED 0.289, HEPG2TOX_HILL_SLOPE 0.153, HEPG2TOX_R_SQUARED 0.318, read-out: LUCIFERASE INFECTION ASSAY - IC50): > 10 µM
15 | COC(=O)[C@@H](NC(=O)Nc1ccc(-c2nc3ccccc3s2)cc1)C(C)C | > 8.61 | IC50 (FFLUC_HILL_SLOPE 0.533, FFLUC_R_SQUARED 0.87, PBLUC_HILL_SLOPE 0.528, PBLUC_R_SQUARED 0.783, read-out: LUCIFERASE INFECTION ASSAY - IC50): 0.264 µM
16 | COc1cccc(-c2cnc(N)c(-c3ccc(O)c(OC)c3)c2)c1 | 7.28 | IC50 (FFLUC_HILL_SLOPE 0.591, FFLUC_R_SQUARED 0.281, PBLUC_HILL_SLOPE 3.73, PBLUC_R_SQUARED 0.478, read-out: LUCIFERASE INFECTION ASSAY - IC50): 4.04 µM
17 | CSc1sc(-c2n[nH]cc2Br)c2c1C(=O)CC(C)(C)C2 | > 8.89 | IC50 (FFLUC_HILL_SLOPE 0.501, FFLUC_R_SQUARED 0.129, read-out: LUCIFERASE INFECTION ASSAY - IC50): > 8.89 µM
18 | Cc1c(C)n(CCCO)c2ncn3nc(-c4ccccc4O)nc3c12 | 0.862 | IC50 (FFLUC_HILL_SLOPE 0.508, FFLUC_R_SQUARED 0.752, HEPG2TOX_HILL_SLOPE 10.5, HEPG2TOX_R_SQUARED 0.849, PBLUC_HILL_SLOPE 1, PBLUC_R_SQUARED 0.894, read-out: LUCIFERASE INFECTION ASSAY - IC50): 0.0964 µM
19 | Cc1ccc(NS(=O)(=O)c2ccc(C(=O)Nc3ncccc3O)cc2)cc1 | 0.462 | IC50 (FFLUC_HILL_SLOPE 0.564, FFLUC_R_SQUARED 0.118, HEPG2TOX_HILL_SLOPE 3.99, HEPG2TOX_R_SQUARED 0.784, PBLUC_HILL_SLOPE 9.26, PBLUC_R_SQUARED 0.767, read-out: LUCIFERASE INFECTION ASSAY - IC50): 0.364 µM
20 | Cc1oc(-c2ccccc2)nc1C(=O)N(C)CC(=O)Nc1ccc(N2CCOCC2)cc1 | > 10 | IC50 (FFLUC_HILL_SLOPE 0.476, FFLUC_R_SQUARED 0.109, HEPG2TOX_HILL_SLOPE 11.6, HEPG2TOX_R_SQUARED 0.88, read-out: LUCIFERASE INFECTION ASSAY - IC50): > 10 µM
21 | Cc1cnc(NC(=O)c2ccc(CN3CCCCC3)cc2)s1 | > 10 | IC50 (FFLUC_HILL_SLOPE 0.622, FFLUC_R_SQUARED 0.84, HEPG2TOX_HILL_SLOPE 8.37, HEPG2TOX_R_SQUARED 0.336, PBLUC_HILL_SLOPE 1, PBLUC_R_SQUARED 0.657, read-out: LUCIFERASE INFECTION ASSAY - IC50): 1.28 µM
22 | Clc1ccccc1-c1cnc2sc(NCc3cccs3)nn12 | > 9.51 | IC50 (FFLUC_HILL_SLOPE 0.509, FFLUC_R_SQUARED 0.232, read-out: LUCIFERASE INFECTION ASSAY - IC50): > 9.51 µM
23 | Cn1nc(-c2ccc(-c3ccnc(SCC(=O)c4ccccc4)n3)s2)cc1C(F)(F)F | > 7.17 | IC50 (FFLUC_HILL_SLOPE 0.544, FFLUC_R_SQUARED 0.175, read-out: LUCIFERASE INFECTION ASSAY - IC50): > 7.17 µM
24 | COc1ccc(-c2cc(-c3ccc4ccccc4c3)n(C)c2-c2ccc(F)cc2)cc1 | > 8.1 | IC50 (FFLUC_HILL_SLOPE 0.642, FFLUC_R_SQUARED 0.523, PBLUC_HILL_SLOPE 1.6, PBLUC_R_SQUARED 0.413, read-out: LUCIFERASE INFECTION ASSAY - IC50): 2.69 µM
25 | COc1ccc2c(C(=O)N/N=C/c3cc(Br)c4ccccc4c3O)cccc2c1 | 3.64 | IC50 (FFLUC_HILL_SLOPE 0.529, FFLUC_R_SQUARED 0.712, HEPG2TOX_HILL_SLOPE 1.8, HEPG2TOX_R_SQUARED 0.756, PBLUC_HILL_SLOPE 12.3, PBLUC_R_SQUARED 0.402, read-out: LUCIFERASE INFECTION ASSAY - IC50): 3.05 µM
26 | O=C(Nc1cccc(S(=O)(=O)N2CCCCC2)c1)c1cn(-c2ccccc2C(F)(F)F)nn1 | > 10 | IC50 (FFLUC_HILL_SLOPE 0.647, FFLUC_R_SQUARED 0.258, read-out: LUCIFERASE INFECTION ASSAY - IC50): > 10 µM
27 | C/N=c1\scc(-c2ccco2)n1/N=C/c1sccc1C | 1.19 | IC50 (FFLUC_HILL_SLOPE 0.471, FFLUC_R_SQUARED 0.601, PBLUC_HILL_SLOPE 1.29, PBLUC_R_SQUARED 0.771, read-out: LUCIFERASE INFECTION ASSAY - IC50): 0.216 µM
28 | COc1cccc(C2c3sc(=O)[nH]c3SC3C4CCC(C4)C23)c1O (stereo not given) | > 9.13 | IC50 (FFLUC_HILL_SLOPE 0.571, FFLUC_R_SQUARED 0.432, read-out: LUCIFERASE INFECTION ASSAY - IC50): > 9.13 µM
29 | CC(C)c1nc(N2CCN(C)CC2)c(C#N)c2c1CCCC2 | > 11.1 | IC50 (FFLUC_HILL_SLOPE 0.534, FFLUC_R_SQUARED 0.16, read-out: LUCIFERASE INFECTION ASSAY - IC50): > 11.1 µM
30 | N#Cc1nn(-c2cccc(Cl)c2)c(=O)cc1Cl | 11.9 | IC50 (FFLUC_HILL_SLOPE 0.646, FFLUC_R_SQUARED 0.469, HEPG2TOX_HILL_SLOPE 5.31, HEPG2TOX_R_SQUARED 0.933, PBLUC_HILL_SLOPE 9.19, PBLUC_R_SQUARED 0.334, read-out: LUCIFERASE INFECTION ASSAY - IC50): 9.36 µM
